From PubChem BioAssay AID623864 (Southern Research Specialized Biocontainment Screening …, 2012)
The source made the active and inactive calls. No rule for the calls is given here.

Columns and labels:
[1] = test system: VeroE6 cell viability, cytotoxicity CC50; assay: VeroE6 cell cytotoxicity, dose response, cytotoxicity control for flavivirus guanylyltransferase probe project (AID 623864)
[2] = as above; details: VeroE6 cell viability, cytotoxicity CC50; at 50 µM (top of the series)

SMILES	CC50 [1]	viability [2]
O=S(=O)(Nc1cc(Sc2ncn[nH]2)c(O)c2ccccc12)c1ccc(F)cc1	31.7 µM	–
O=[N+]([O-])c1cccc(S(=O)(=O)Nc2cc(SCc3ccccc3)c(O)c3ccccc23)c1	14.4 µM	–
O=C(O)CSc1cc(NS(=O)(=O)c2cccc3cccnc23)c2ccccc2c1O	19.2 µM	–
O=S(=O)(Nc1cc(Cl)c(O)c2ccccc12)c1ccc(F)cc1	29.4 µM	–
O=C(O)CSc1cc(NS(=O)(=O)c2ccc(F)cc2)c2ccccc2c1O	20 µM	–
O=C(O)CSc1cc(NS(=O)(=O)c2ccc(Cl)cc2)c2ccccc2c1O	30.8 µM	–
Cc1ccc(S(=O)(=O)Nc2cc(SCC(=O)O)c(O)c3ccccc23)cc1	27.6 µM	–
COc1ccc(OC)c(S(=O)(=O)Nc2cc(SCC(=O)O)c(O)c3ccccc23)c1	29.7 µM	–
O=C(O)CSc1cc(NS(=O)(=O)c2ccc(Br)cc2)c2ccccc2c1O	21.6 µM	–
Cn1c(=O)c2[nH]c(-c3ccc(Cl)cc3)c(O)c2n(C)c1=O	–	72.3% (inactive)
Cc1cc(F)ccc1S(=O)(=O)Nc1cc(SCC(=O)O)c(O)c2ccccc12	21.6 µM	–
O=C(O)CSc1cc(NS(=O)(=O)c2cccc([N+](=O)[O-])c2)c2ccccc2c1O	30.9 µM	–
Cc1ccc(S(=O)(=O)Nc2cc(Sc3nc(C)cc(C)n3)c(O)c3ccccc23)cc1	12.8 µM	–
Cc1cc(C)c(S(=O)(=O)Nc2cc(SCC(=O)O)c(O)c3ccccc23)c(C)c1	12.6 µM	–
O=S(=O)(Nc1cc(SCc2ccccc2)c(O)c2ccccc12)c1ccc(Cl)cc1	32.3 µM	–
O=[N+]([O-])c1cccc(S(=O)(=O)Nc2cc(Sc3nc4ccccc4s3)c(O)c3ccccc23)c1	7.37 µM	–
